The structures appear in SMILES notation. In brackets after ≈: the same amount, converted by molar mass.

The conditions of this data set: buffer; pH 7.4; 200.0 µM.
Turning to `CCOc1cccc(CN2CCN(Cc3ccc(C)o3)C(CCO)C2)c1O` (stereo not drawn), the kinetic solubility is > 56.2 µg/mL.

Turning to `NC(=O)c1ccc[n+](CC(=O)c2ccc(Br)cc2)c1.[Br-]`, the solubility (kinetic) was > 60 µg/mL.

On to `CC(C)n1cnnc1SCC(=O)Nc1cccnc1Cl`, for which the solubility (kinetic) was > 46.8 µg/mL.

As to `Cc1ccc(SCCOCCN2CCOCC2)cc1.Cl`, the kinetic solubility was > 47.7 µg/mL.

Regarding `COc1ccc(C(=O)NCCc2nc3cc([N+](=O)[O-])ccc3n2C)cc1`, the kinetic solubility is 2.5 µg/mL (≈ 7.05 µM).

`Cc1cc(C)c2c(CN3CCOCC3)cc(=O)oc2c1C` registered a solubility (kinetic) of 26.5 µg/mL (≈ 92.2 µM).

In turn, `Cl.NCCSSCCN` gave a kinetic solubility of 31.6 µg/mL.

`O=C1NC(=O)C(=Cc2ccc(Sc3ccccc3)o2)C(=O)N1` displayed a kinetic solubility of 40.5 µg/mL (≈ 129 µM).

With `Cc1cc(C(=O)OCC(=O)NC2CCCC(C)C2C)c(C)o1` (stereo not drawn), the solubility (kinetic) came to 12.4 µg/mL (≈ 40.3 µM).

`Cc1c(C(=O)O)c(C(=O)O)nc2ccc(N3CCOCC3)cc12`: the solubility (kinetic) was > 47.4 µg/mL.

`CC1CCCN(C(=O)COC(=O)Cc2ccc(Cl)cc2)C1` (stereo not drawn) yielded a kinetic solubility of 29.8 µg/mL (≈ 96.2 µM).

As for `Cc1ccc(C(=O)NCCn2ccc3ccccc32)cc1[N+](=O)[O-]`, the solubility (kinetic) is 3.9 µg/mL (≈ 12.1 µM).

In turn, `COc1ccc(NS(=O)(=O)c2cccc(C(=O)N3CCN(C(=O)c4ccco4)CC3)c2)cc1` gave a kinetic solubility of 68.1 µg/mL (≈ 145 µM). This solubility kinetic lies about 17-fold higher than the previous one.

For `COc1ccccc1-c1nc(C#N)c(NCCCn2ccnc2)o1`, the kinetic solubility is > 48.5 µg/mL.

In the case of `Cc1ccc2c(CN3CCC(C(N)=O)CC3)cc(=O)oc2c1C`, the solubility (kinetic) was determined as 46.2 µg/mL (≈ 147 µM).

Consider `COc1cccc(NC(=S)NCc2ccccc2)c1`, for which the solubility (kinetic) is > 40.9 µg/mL.

For the compound `Cc1cnc(C(=O)NCc2ccc(Cl)cc2Cl)cn1`, the solubility (kinetic) came to 7.7 µg/mL (≈ 26 µM).

Consider `CC(C)c1ccc(NC(=O)c2ccccc2NC(=O)C2CC=CCC2C(=O)O)cc1` (stereo not drawn), for which the solubility (kinetic) is > 61 µg/mL.

`CO/N=C(\c1ccccc1)c1cccnc1` had a solubility (kinetic) of 23.2 µg/mL (≈ 109 µM).

For the compound `CC(C)Oc1ccc(CNC(=O)Oc2ccccc2)cc1`, the solubility (kinetic) amounted to 25.5 µg/mL (≈ 89.4 µM).

Consider `Cc1cc(C)c(C(=O)COC(=O)CN2C(=O)NC3(CCCC3)C2=O)cc1C`, for which the solubility (kinetic) was > 55.9 µg/mL.

With `Cc1ccc(S(=O)(=O)n2cc(C=O)c3ccccc32)cc1`, the kinetic solubility was < 0.6 µg/mL.

In turn, `O=C(COC(=O)c1ccncc1)c1ccc(Br)cc1` registered a kinetic solubility of 44 µg/mL (≈ 137 µM).

`Cc1cc(C)cc(OCC(=O)OCC(=O)NC2CCCC2)c1` yielded a solubility (kinetic) of 38.5 µg/mL (≈ 126 µM).

On to `CCN(C(=O)CN1CCC(C(=O)OC)CC1)c1c(N)n(Cc2ccccc2)c(=O)[nH]c1=O`, for which the solubility (kinetic) is > 66.5 µg/mL.

In turn, `CCN1CCN(C(=S)NC(=O)/C=C/c2cccs2)CC1` came in with a kinetic solubility of 44.8 µg/mL (≈ 145 µM).

The compound `COc1ccc(OC)c(NC(=O)N2CCCc3ccccc32)c1` displayed a kinetic solubility of 1.7 µg/mL (≈ 5.44 µM).

Turning to `COc1ccc(C2=NCCNC(C(F)(F)F)=C2)cc1`, the solubility (kinetic) was > 40.5 µg/mL.

As for `Cc1cc(C(=O)N2CCC(C)CC2)on1`, the kinetic solubility was > 31.2 µg/mL.

Regarding `COc1ccc(CNC(=O)CC2Sc3ccccc3NC2=O)cc1` (stereo not drawn), the solubility (kinetic) worked out at 1.6 µg/mL (≈ 4.67 µM).

In turn, `CN(C)c1ccc(C(=O)C(=O)c2ccccc2)cc1` had a solubility (kinetic) of 10.8 µg/mL (≈ 42.6 µM).

Compound `CC(C)(C)CC(=O)Nc1ccc(-c2cn3cccnc3n2)cc1` yielded a kinetic solubility of 40.3 µg/mL (≈ 131 µM).

The compound `Cl.OC1(C#CCN2CCCC2)CCCCC1` gave a kinetic solubility of 34.2 µg/mL.

`N#C/C(=C\c1c(N2CCCCCC2)nc2ccccn2c1=O)C(N)=O`: the solubility (kinetic) is > 50.6 µg/mL.

As to `CC1(C)CC2(CCO1)OC(=O)CC2C(=O)Nc1ccc(Cl)cc1[N+](=O)[O-]` (stereo not drawn), the kinetic solubility is > 57.4 µg/mL.

As for `Cc1cc(=O)[nH]c(SCc2cn3ccccc3n2)n1`, the solubility (kinetic) is > 40.8 µg/mL.

Consider `CN(CC(=O)Nc1cccc([N+](=O)[O-])c1)S(=O)(=O)c1ccccc1`, for which the solubility (kinetic) was > 52.4 µg/mL.

Consider `COC(c1ccccc1)(c1ccccc1)C(Oc1nccc(C)n1)C(=O)O` (stereo not drawn), for which the kinetic solubility was 51 µg/mL (≈ 140 µM).

Take `C/C=C/C(=O)OCC(=O)Nc1ccc(OC)c(OC)c1`: the solubility (kinetic) is > 41.9 µg/mL.

As to `NCCCNC(=O)c1ccc(/C=N/O)nc1`, the kinetic solubility is > 33.3 µg/mL.

For `N#C/C(=C\C=C\c1ccccc1)C(=O)NCc1ccco1`, the solubility (kinetic) was found to be 6.3 µg/mL (≈ 22.6 µM).

For `COCCN(Cc1ccc(F)cc1)C(=O)c1cc2ccccc2oc1=O`, the solubility (kinetic) is > 53.3 µg/mL.

`O=C(COC(=O)c1cc(=O)[nH]c2ccccc12)Nc1ccccc1F` returned a solubility (kinetic) of 19.7 µg/mL (≈ 57.9 µM).

On to `CSc1ccc(C(=O)C2CCCN(C)C2)cc1` (stereo not drawn), for which the kinetic solubility was > 37.4 µg/mL.

Turning to `CC(=O)Oc1cc(C(=O)OCC(=O)N2CCc3ccccc3C2)cc(OC(C)=O)c1OC(C)=O`, the kinetic solubility is > 70.4 µg/mL.

Consider `COc1ccc(-n2c(O)c(C=NCCN(C)C)c(=O)[nH]c2=O)cc1`, for which the solubility (kinetic) is > 49.9 µg/mL.

With `NS(=O)(=O)c1ccc(CCN2C(=O)CCC2=O)cc1`, the solubility (kinetic) is > 42.3 µg/mL.

`O=C(CCNc1ccc(Cc2ccncc2)cc1)c1ccc([N+](=O)[O-])cc1` yielded a kinetic solubility of 11.6 µg/mL (≈ 32.1 µM).

Regarding `COc1ccc(CNC(=O)CSCc2c(F)cccc2Cl)cc1`, the solubility (kinetic) stood at 5.5 µg/mL (≈ 15.5 µM).

`CSc1ncc(C(=O)Nc2ccccc2Cl)c(C)n1` yielded a kinetic solubility of 39.6 µg/mL (≈ 135 µM).

For `Cn1cccc1C(=O)OCC(=O)NCCc1ccccc1`, the solubility (kinetic) was > 42.9 µg/mL.

Compound `O=C(CNC(=O)c1ccc(Cl)cc1)c1ccccc1` displayed a kinetic solubility of 6 µg/mL (≈ 21.9 µM).

`CSc1ncccc1C(=O)OCC(=O)NC1CCCc2ccccc21` (stereo not drawn) registered a solubility (kinetic) of 5.5 µg/mL (≈ 15.4 µM).

In turn, `CN(C(=O)COc1ccc(Br)cc1Cl)C1CCCCC1` came in with a kinetic solubility of 19.8 µg/mL (≈ 54.9 µM).

Take `COc1cc(C)c(S(=O)(=O)NCc2cccnc2)cc1C`: the kinetic solubility was > 46 µg/mL.

In turn, `CN1Cc2c(N3CCOCC3)nc3sc(C#N)c(N)c3c2CC1(C)C` had a kinetic solubility of 15 µg/mL (≈ 42 µM).

With `Cn1c(=O)n(C)c2cc(S(=O)(=O)Nc3ccccc3C(=O)O)ccc21`, the kinetic solubility was > 54.2 µg/mL.

Take `Cc1ccn2cc(CCNC(=O)COc3ccccc3)nc2c1`: the kinetic solubility turned out to be 40.6 µg/mL (≈ 131 µM).

On to `O=[N+]([O-])c1ccc(SCc2c(F)cccc2Cl)nc1`, for which the kinetic solubility is < 0.3 µg/mL.

`Cn1c(/C(C#N)=C(\O)c2ccc([N+](=O)[O-])cc2)nc2ccccc21`: the kinetic solubility is < 0.2 µg/mL.

`CCC(C)(C)NC(=O)CCCSc1nc2ccccc2[nH]1` gave a solubility (kinetic) of 28.7 µg/mL (≈ 94 µM).

As to `O=[N+]([O-])c1cccc(CNC2CCCCCC2)c1`, the solubility (kinetic) came to 24.6 µg/mL (≈ 99.1 µM).

Take `Cc1ccc(NC(=S)N2CCCCCC2)cc1`: the kinetic solubility is > 37.3 µg/mL.

The compound `CC(CCc1ccccc1)NC(=O)CSc1ccccn1` (stereo not drawn) came in with a kinetic solubility of 34.6 µg/mL (≈ 115 µM).

On to `Cc1cccc(CC(=O)N2CCOCC2)c1`, for which the kinetic solubility is > 32.9 µg/mL.

Regarding `CCNc1nc(NC(C)C)nc(N(C#N)CC(=O)OC)n1`, the kinetic solubility is > 44 µg/mL.

With `CC(=O)Nc1ccc(S(=O)(=O)N[C@@H](C)C(=O)NC2CCCc3ccccc32)cc1` (stereo partly drawn), the solubility (kinetic) was 30.3 µg/mL (≈ 72.9 µM).

Compound `COc1ccc(S(=O)(=O)N2CCOCC2)cc1NC(=O)COc1ccc2c(C)cc(=O)oc2c1` gave a kinetic solubility of 4.1 µg/mL (≈ 8.39 µM). Compared with the last compound, the solubility kinetic is about 7.4-fold lower.

As to `COc1cc(CNC(=O)C2CCCC2)cc(OC)c1OC`, the solubility (kinetic) is > 44 µg/mL.

As for `CC1CCCC(C)N1C(=O)COC(=O)CCC1CCCC1` (stereo not drawn), the kinetic solubility stood at 30.1 µg/mL (≈ 102 µM).

Compound `COc1ccc(NC(=O)CCCSc2ccccc2)cc1` showed a kinetic solubility of 17.2 µg/mL (≈ 57.1 µM).

The compound `CN(C(=S)NC(=O)C12CC3CC(CC(C3)C1)C2)c1ccc(O)cc1` showed a solubility (kinetic) of 45.8 µg/mL (≈ 133 µM).

For the compound `COc1ccc(C(CNC(=O)c2cc3c(s2)CCCC3)N2CCOCC2)cc1` (stereo not drawn), the solubility (kinetic) amounted to 36.4 µg/mL (≈ 90.9 µM). This solubility kinetic and that of the compound before are within 1.5-fold of each other.

The kinetic solubility is solubility judged after dilution from a stock solution rather than from solid.

These data come from PubChem BioAssay AID1996.
